# From patent US10556865B2, “Synergistic herbicidal composition containing certain pyridine or pyrimidine carboxylic acids and certain cereal and rice herbicides” (Dow AgroSciences, LLC, priority 2007, dated 2020)
# How the values were obtained:
# Format in all cases: in vivo
# [1] = system: windgrass (Apera spica-venti L; APESV); experiment: Postemergence herbicidal activity of mixtures in cereal crops (greenhouse, visual injury); conditions: Apera spica-venti, post-emergence, read-out: APESV Ob
# Procedure: (§1) Seeds of the desired test plant species were planted in Sun Gro MetroMix® 306 planting mixture, which typically has a pH of 6.0 to 6.8 and an organic matter content of about 30 percent, in plastic pots with a surface area of 103.2 square centimeters (cm^2). […] The plants were grown for 7-36 days in a greenhouse with an approximate 14 hour photoperiod which was maintained at about 18° C. during the day and 17° C. during the night. Nutrients and water were added on a regular basis and supplemental lighting was provided with overhead metal halide 1000-Watt lamps as necessary. The plants were employed for testing when they reached the second or third true leaf stage.
# (§2) Treatments consisted of compound (as listed in Tables 1 through 64) and a second cereal herbicide alone and in combination. […] The concentrated stock solutions were diluted to 1.5 mg ai/mL with the addition of 2 volumes of an aqueous mixture containing acetone, water, isopropyl alcohol, DMSO, Agri-dex crop oil concentrate, and Triton® X-77 surfactant in a 64.7:26.0:6.7:2.0:0.7:0.01 v/v ratio. A dilution solution was prepared by mixing 1 volume of 97:3 v/v acetone/DMSO and 2 volumes of an aqueous mixture containing acetone, water, isopropyl alcohol, DMSO, Agri-dex crop oil concentrate, and Triton® X-77 surfactant in a 64.7:26.0:6.7:2.0:0.7:0.01 v/v ratio. Compound requirements are based upon a 12 mL application volume at a rate of 187 liters per hectare (L/ha). […] Formulated compounds were applied to the plant material with an overhead Mandel track sprayer equipped with 8002E nozzles calibrated to deliver 187 L/ha over an application area of 0.503 square meters (m^2) at a spray height of 18 inches […] above average plant canopy. Control plants were sprayed in the same manner with the solvent blank.
# (§3) The treated plants and control plants were placed in a greenhouse as described above and watered by sub-irrigation to prevent wash-off of the test compounds. After 20-22 days, the condition of the test plants as compared with that of the control plants was determined visually and scored on a scale of 0 to 100 percent where 0 corresponds to no injury and 100 corresponds to complete kill.
# (§4) Colby's equation was used to determine the herbicidal effects expected from the mixtures (Colby, S. R. 1967. Calculation of the synergistic and antagonistic response of herbicide combinations. Weeds 15:20-22.).
# (§5) The following equation was used to calculate the expected activity of mixtures containing two active ingredients, A and B: Expected=A+B−(A×B/100)
# [2] = system: littleseed Canarygrass (Phalaris minor L; PHAMI); experiment: as above
# Procedure: as §1, §2, §3, §4, §5
# [3] = system: annual ryegrass (Lolium multiflorum L; LOLMG); experiment: as above; conditions: 50 g/ha, Table 22
# Procedure: as §1, §2, §3, §4, §5
# [4] = system: blackgrass (Alopecurus myosuroides L; ALOMY); experiment: Postemergence herbicidal activity of mixtures in cereal crops (greenhouse, visual injury 0-100 percent after 20-22 days)
# Procedure: as §1, §2, §3, §4, §5
# [5] = system: bird's-eye speedwell (Veronica persica L; VERPE); experiment: Postemergence herbicidal activity of mixtures in cereal crops (greenhouse, visual injury)
# Procedure: (§6) The plants were grown for 7-36 days in a greenhouse with an approximate 14 hour photoperiod which was maintained at about 18° C. during the day and 17° C. during the night. Nutrients and water were added on a regular basis and supplemental lighting was provided with overhead metal halide 1000-Watt lamps as necessary. The plants were employed for testing when they reached the second or third true leaf stage.
# (§7) Treatments consisted of compound (as listed in Tables 1 through 64) and a second cereal herbicide alone and in combination. […] Control plants were sprayed in the same manner with the solvent blank.
# as §3, §5
# [6] = system: Cyperus esculentus L. (CYPES); experiment: Postemergence herbicidal mixtures for weed control in direct seeded rice (greenhouse, visual % injury)
# Cyperus iria L. (CYPIR) = experiment: as above
# [7] = system: Ipomoea hederacea (L.) JACQ. (IPOHE); experiment: Postemergence herbicidal mixtures for weed control in direct seeded rice (greenhouse, visual % injury after 3 weeks)
# [8] = system: black mustard (Brassica nigra L; BRSNI); experiment: Postemergence herbicidal activity of mixtures in cereal crops (greenhouse, visual injury); conditions: Brassica, post-emergence, 35 g/ha alone; read-out: BRSNI Ob
# Procedure: Seeds of the desired test plant species were planted in Sun Gro MetroMix® 306 planting mixture, which typically has a pH of 6.0 to 6.8 and an organic matter content of about 30 percent, in plastic pots with a surface area of 103.2 square centimeters (cm^2). When required to ensure good germination and healthy plants, a fungicide treatment and/or other chemical or physical treatment was applied. The plants were grown for 7-36 days in a greenhouse with an approximate 14 hour photoperiod which was maintained at about 18° C. during the day and 17° C. during the night. Nutrients and water were added on a regular basis and supplemental lighting was provided with overhead metal halide 1000-Watt lamps as necessary. The plants were employed for testing when they reached the second or third true leaf stage.
# Treatments consisted of compound (as listed in Tables 1 through 64) and a second cereal herbicide alone and in combination. Weighed amounts of esters (methyl) or salts (TEA [triethylammonium], K [potassium]) of 4-amino-3-chloro -6-(4-chloro-2-fluoro-3-methoxyphenyl)pyridine-2-carboxylic acid (Compound A) or of 6-amino-5-chloro-2-(4-chloro-2-fluoro-3-methoxyphenyl)pyrimidine-4-carboxylic acid (Compound B), were placed in 25 milliliter (mL) glass vials and dissolved in a volume of 97:3 v/v acetone/DMSO to obtain 4.5 milligrams (mg) active ingredient (ai)/mL stock solutions. […] The concentrated stock solutions were diluted to 1.5 mg ai/mL with the addition of 2 volumes of an aqueous mixture containing acetone, water, isopropyl alcohol, DMSO, Agri-dex crop oil concentrate, and Triton® X-77 surfactant in a 64.7:26.0:6.7:2.0:0.7:0.01 v/v ratio. A dilution solution was prepared by mixing 1 volume of 97:3 v/v acetone/DMSO and 2 volumes of an aqueous mixture containing acetone, water, isopropyl alcohol, DMSO, Agri-dex crop oil concentrate, and Triton® X-77 surfactant in a 64.7:26.0:6.7:2.0:0.7:0.01 v/v ratio. Compound requirements are based upon a 12 mL application volume at a rate of 187 liters per hectare (L/ha). Spray solutions of the second cereal herbicide and experimental compound mixtures were prepared by adding the stock solutions to the appropriate amount of dilution solution to form 12 mL spray solution with active ingredients in two- and three-way combinations. Formulated compounds were applied to the plant material with an overhead Mandel track sprayer equipped with 8002E nozzles calibrated to deliver 187 L/ha over an application area of 0.503 square meters (m^2) at a spray height of 18 inches (43 cm) above average plant canopy. Control plants were sprayed in the same manner with the solvent blank.
# as §3, §4, §5
# [9] = system: scented mayweed (Matricaria chamomila L; MATCH); experiment: as above; conditions: Matricaria, post-emergence, read-out: MATCH Ob
# Procedure: as §6, §7, §3, §5
smiles,measurement,setting,value
"CCON=C(CC)C1=C(O)CC(c2c(C)cc(C)cc2C)CC1=O (centres unmarked) [Tralkoxydim, 2-[1-(ethoxyimino)propyl]-3-hydroxy-5-(2,4,6-trimethylphenyl)-2-cyclohexen-1-one, reference compound]",pest or weed control at 50 g/ha,[1],75%
same,PHAMI Ob,"[2]; 25 g/ha, Table 6",35%
same,PHAMI Ob,"[2]; 50 g/ha, Table 6",45%
same,PHAMI Ob,"[2]; 50 g/ha, Table 22",30%
same,LOLMG Ob,[3],50%
same,ALOMY Ob,"[4]; 25 g/ha, Table 6",78%
same,ALOMY Ob,"[4]; 50 g/ha, Table 6",70%
same,ALOMY Ob,"[4]; 50 g/ha, Table 22",70%
"COc1nc(C)nc(NC(=O)NS(=O)(=O)c2ccccc2Cl)n1 [Chlorsulfuron, 2-chloro-N-[[(4-methoxy-6-methyl-1,3,5-triazin-2-yl)amino]carbonyl]benzenesulfonamide, reference compound]",VERPE Ob,"[5]; 2.2 g/ha, Table 28",5%
COc1cc(OC)nc(Oc2cccc(Oc3nc(OC)cc(OC)n3)c2C(=O)O)n1 [Bispyribac-sodium],% Injury CYPES Ob,[6]; alone 14 g/ha,0%
same,% Injury CYPES Ob,[6]; alone 28 g/ha,50%
same,% Injury CYPIR Ob,Cyperus iria L. (CYPIR); alone 7 g/ha,40%
same,% Injury CYPIR Ob,Cyperus iria L. (CYPIR); alone 14 g/ha,90%
same,% Injury CYPIR Ob,Cyperus iria L. (CYPIR); alone 28 g/ha,95%
same,% Injury IPOHE Ob,[7]; alone 7 g/ha,10%
same,% Injury IPOHE Ob,[7]; alone 28 g/ha,60%
COc1c(Cl)ccc(Cl)c1C(=O)O [Dicamba],pest or weed control at 35 g/ha,[8],50%
same,pest or weed control at 35 g/ha,[9]; 35 g/ha alone,30%
same,pest or weed control at 35 g/ha,"[5]; Veronica persica, post-emergence, 35 g/ha alone, read-out: VERPE Ob",10%
CCN(CC)CC.O=C(O)COc1nc(Cl)c(Cl)cc1Cl [Triclopyr-TEA],% Injury CYPES Ob,[6]; alone 140 g/ha,0%
same,% Injury CYPES Ob,[6]; alone 280 g/ha,0%
CC(Oc1ccc(Cl)cc1Cl)C(=O)O (centres unmarked) [Dichlorprop],pest or weed control at 140 g/ha,[9]; 140 g/ha alone,10%
same,pest or weed control at 140 g/ha,"[5]; Veronica persica, post-emergence, 140 g/ha alone, read-out: VERPE Ob",20%
